What was measured:
Assay type in all cases: functional
SR [1] = test: Cytotoxicity against human SR cells assessed as cell growth at 0.01 uM incubated for 48 hrs by sulforhodamine B assay relative to control; settings: read-out: Activity
A549 = test: Cytotoxicity against human A549/ATCC cells assessed as cell growth at 0.01 uM incubated for 48 hrs by sulforhodamine B assay relative to control; settings: A549, 48 h, read-out: Activity
HCC 2998 [2] = test: Cytotoxicity against human HCC2998 cells assessed as cell growth at 0.01 uM incubated for 48 hrs by sulforhodamine B assay relative to control; settings: HCC 2998, 48 h, read-out: Activity
HCT-15 = test: Cytotoxicity against human HCT15 cells assessed as cell growth at 0.01 uM incubated for 48 hrs by sulforhodamine B assay relative to control; settings: HCT-15, 48 h, read-out: Activity
SF-268 [3] = test: Cytotoxicity against human SF268 cells assessed as cell growth at 0.01 uM incubated for 48 hrs by sulforhodamine B assay relative to control; settings: SF-268, 48 h, read-out: Activity
OVCAR-5 [4] = test: Cytotoxicity against human OVCAR5 cells assessed as cell growth at 0.01 uM incubated for 48 hrs by sulforhodamine B assay relative to control; settings: OVCAR-5, 48 h, read-out: Activity
PC-3 [5] = test: Cytotoxicity against human PC3 cells assessed as cell growth at 0.01 uM incubated for 48 hrs by sulforhodamine B assay relative to control; settings: PC-3, 48 h, read-out: Activity
MDA-MB-468 = test: Cytotoxicity against human MDA-MB-468 cells assessed as cell growth at 0.01 uM incubated for 48 hrs by sulforhodamine B assay relative to control; settings: MDA-MB-468, 48 h, read-out: Activity
K562 = test: Cytotoxicity against human K562 cells assessed as cell growth at 0.1 uM incubated for 48 hrs by sulforhodamine B assay relative to control; settings: K562, 48 h, read-out: Activity
MOLT-4 = test: Cytotoxicity against human MOLT4 cells assessed as cell growth at 0.1 uM incubated for 48 hrs by sulforhodamine B assay relative to control; settings: MOLT-4, 48 h, read-out: Activity
NCI-H23 = test: Cytotoxicity against human NCI-H23 cells assessed as cell growth at 0.1 uM incubated for 48 hrs by sulforhodamine B assay relative to control; settings: NCI-H23, 48 h, read-out: Activity
COLO 205 = test: Cytotoxicity against human COLO205 cells assessed as cell growth at 0.1 uM incubated for 48 hrs by sulforhodamine B assay relative to control; settings: COLO 205, 48 h, read-out: Activity
SW-620 = test: Cytotoxicity against human SW620 cells assessed as cell growth at 0.1 uM incubated for 48 hrs by sulforhodamine B assay relative to control; settings: SW-620, 48 h, read-out: Activity
SF-268 [6] = test: Cytotoxicity against human SF268 cells assessed as cell growth at 0.1 uM incubated for 48 hrs by sulforhodamine B assay relative to control; settings: SF-268, 48 h, read-out: Activity
U-251 = test: Cytotoxicity against human U251 cells assessed as cell growth at 0.1 uM incubated for 48 hrs by sulforhodamine B assay relative to control; settings: U-251, 48 h, read-out: Activity
SR [7] = test: Cytotoxicity against human SR cells assessed as cell growth at 1 uM incubated for 48 hrs by sulforhodamine B assay relative to control; settings: read-out: Activity
EKVX = test: Cytotoxicity against human EKVX cells assessed as cell growth at 1 uM incubated for 48 hrs by sulforhodamine B assay relative to control; settings: read-out: Activity
M14 = test: Cytotoxicity against human M14 cells assessed as cell growth at 1 uM incubated for 48 hrs by sulforhodamine B assay relative to control; settings: M14, 48 h, read-out: Activity
SK-MEL-2 = test: Cytotoxicity against human SK-MEL-2 cells assessed as cell growth at 1 uM incubated for 48 hrs by sulforhodamine B assay relative to control; settings: SK-MEL-2, 48 h, read-out: Activity
SK-OV-3 [8] = test: Cytotoxicity against human SKOV3 cells assessed as cell growth at 1 uM incubated for 48 hrs by sulforhodamine B assay relative to control; settings: SK-OV-3, 48 h, read-out: Activity
T47D [9] = test: Cytotoxicity against human T47D cells assessed as cell growth at 1 uM incubated for 48 hrs by sulforhodamine B assay relative to control; settings: read-out: Activity
OVCAR-5 [10] = test: Cytotoxicity against human OVCAR5 cells assessed as cell growth at 10 uM incubated for 48 hrs by sulforhodamine B assay relative to control; settings: OVCAR-5, 48 h, read-out: Activity
SK-OV-3 [11] = test: Cytotoxicity against human SKOV3 cells assessed as cell growth at 10 uM incubated for 48 hrs by sulforhodamine B assay relative to control; settings: SK-OV-3, 48 h, read-out: Activity
SN12C = test: Cytotoxicity against human SN12C cells assessed as cell growth at 10 uM incubated for 48 hrs by sulforhodamine B assay relative to control; settings: read-out: Activity
RPMI-8226 = test: Cytotoxicity against human RPMI8226 cells assessed as cell growth at 100 uM incubated for 48 hrs by sulforhodamine B assay relative to control; settings: RPMI-8226, 48 h, read-out: Activity
IGROV-1 = test: Cytotoxicity against human IGROV1 cells assessed as cell growth at 100 uM incubated for 48 hrs by sulforhodamine B assay relative to control; settings: IGROV-1, 48 h, read-out: Activity
T47D [12] = test: Cytotoxicity against human T47D cells assessed as cell growth at 100 uM incubated for 48 hrs by sulforhodamine B assay relative to control; settings: read-out: Activity
HOP-92 = test: Cytotoxicity against human HOP92 cells incubated for 48 hrs by sulforhodamine B assay; settings: HOP-92, 48 h
NCI-H226 = test: Cytotoxicity against human NCI-H226 cells incubated for 48 hrs by sulforhodamine B assay; settings: NCI-H226, 48 h
HCC 2998 [13] = test: Cytotoxicity against human HCC2998 cells incubated for 48 hrs by sulforhodamine B assay; settings: HCC 2998, 48 h
RXF 393 = test: Cytotoxicity against human RXF393 cells incubated for 48 hrs by sulforhodamine B assay; settings: RXF 393, 48 h
PC-3 [14] = test: Cytotoxicity against human PC3 cells incubated for 48 hrs by sulforhodamine B assay; settings: PC-3, 48 h
[15] = read-out: LC50 (the source's name)
[16] = read-out: pLC50 (the source's name) (converted)

Question: For `COc1ccc(-c2nocc2-c2cc(OC)c(OC)c(OC)c2)cc1`, which growth at 0.01 µM (SR [1]) is on record?
Answer: 99%

Question: And the growth at 0.01 µM (A549)?
Answer: 100%

Question: What about the growth at 0.01 µM (HCC 2998 [2]) of the same compound?
Answer: 97%

Question: What about the growth at 0.01 µM (HCT-15) of the same compound?
Answer: 88%

Question: And the growth at 0.01 µM (SF-268 [3])?
Answer: 95%

Question: And the growth at 0.01 µM (OVCAR-5 [4])?
Answer: 89%

Question: What about the growth at 0.01 µM (PC-3 [5]) of the same compound?
Answer: 99%

Question: And the growth at 0.01 µM (MDA-MB-468)?
Answer: 94%

Question: And the growth at 0.1 µM (K562)?
Answer: 24%

Question: What about the growth at 0.1 µM (MOLT-4) of the same compound?
Answer: 85%

Question: What about the growth at 0.1 µM (NCI-H23) of the same compound?
Answer: 67%

Question: And the growth at 0.1 µM (COLO 205)?
Answer: 37%

Question: And the growth at 0.1 µM (SW-620)?
Answer: 32%

Question: And the growth at 0.1 µM (SF-268 [6])?
Answer: 63%

Question: And the growth at 0.1 µM (U-251)?
Answer: 48%

Question: And the growth at 1 µM (SR [7])?
Answer: 30%

Question: What about the growth at 1 µM (EKVX) of the same compound?
Answer: 37%

Question: What about the growth at 1 µM (M14) of the same compound?
Answer: 12%

Question: What about the growth at 1 µM (SK-MEL-2) of the same compound?
Answer: 28%

Question: And the growth at 1 µM (SK-OV-3 [8])?
Answer: 38%

Question: And the growth at 1 µM (T47D [9])?
Answer: 37%

Question: What about the growth at 10 µM (OVCAR-5 [10]) of the same compound?
Answer: 39%

Question: What about the growth at 10 µM (SK-OV-3 [11]) of the same compound?
Answer: 32%

Question: What about the growth at 10 µM (SN12C) of the same compound?
Answer: 34%

Question: And the growth at 100 µM (RPMI-8226)?
Answer: -17%

Question: What about the growth at 100 µM (IGROV-1) of the same compound?
Answer: 2%

Question: What about the growth at 100 µM (T47D [12]) of the same compound?
Answer: -4%

Question: And the GI50 (HOP-92; read-out: GI50)?
Answer: 0.678 µM

Question: What about the LC50 (50% lethal concentration) (HOP-92; read-out: LC50) of the same compound?
Answer: > 100 µM

Question: And the TGI (HOP-92; read-out: TGI)?
Answer: 50.2 µM

Question: What about the GI50 (HOP-92; read-out: pGI50 (converted)) of the same compound?
Answer: 0.676 µM

Question: And the LC50 (50% lethal concentration) (HOP-92; read-out: pLC50 (converted))?
Answer: > 100 µM

Question: And the TGI (HOP-92; read-out: pTGI (converted))?
Answer: 50.1 µM

Question: And the GI50 (NCI-H226; read-out: GI50)?
Answer: 15.5 µM

Question: What about the LC50 (NCI-H226; read-out: LC50) of the same compound?
Answer: > 100 µM

Question: What about the TGI (NCI-H226; read-out: TGI) of the same compound?
Answer: 58.3 µM

Question: What about the GI50 (NCI-H226; read-out: pGI50 (converted)) of the same compound?
Answer: 15.5 µM

Question: What about the LC50 (NCI-H226; read-out: pLC50 (converted)) of the same compound?
Answer: > 100 µM

Question: What about the TGI (NCI-H226; read-out: pTGI (converted)) of the same compound?
Answer: 58.9 µM

Question: And the GI50 (HCC 2998 [13]; read-out: GI50)?
Answer: 0.347 µM

Question: And the CC50 (HCC 2998 [13]; [15])?
Answer: > 100 µM

Question: And the TGI (HCC 2998 [13]; read-out: TGI)?
Answer: 22.2 µM

Question: And the GI50 (HCC 2998 [13]; read-out: pGI50 (converted))?
Answer: 0.347 µM

Question: And the CC50 (HCC 2998 [13]; [16])?
Answer: > 100 µM

Question: And the TGI (HCC 2998 [13]; read-out: pTGI (converted))?
Answer: 22.4 µM

Question: What about the GI50 (RXF 393; read-out: GI50) of the same compound?
Answer: 0.243 µM

Question: And the CC50 (RXF 393; [15])?
Answer: > 100 µM

Question: What about the GI50 (RXF 393; read-out: pGI50 (converted)) of the same compound?
Answer: 0.245 µM

Question: What about the CC50 (RXF 393; [16]) of the same compound?
Answer: > 100 µM

Question: And the GI50 (PC-3 [14]; read-out: GI50)?
Answer: 0.0671 µM

Question: What about the LC50 (concentration killing 50% of cells) (PC-3 [14]; read-out: LC50) of the same compound?
Answer: > 100 µM

Question: What about the TGI (PC-3 [14]; read-out: TGI) of the same compound?
Answer: 42.5 µM

Question: What about the GI50 (PC-3 [14]; read-out: pGI50 (converted)) of the same compound?
Answer: 0.0676 µM

Question: What about the LC50 (concentration killing 50% of cells) (PC-3 [14]; read-out: pLC50 (converted)) of the same compound?
Answer: > 100 µM

Question: What about the TGI (PC-3 [14]; read-out: pTGI (converted)) of the same compound?
Answer: 42.7 µM

Source: ChEMBL document CHEMBL4145521, “Regioselective synthesis of 3,4-diaryl-5-unsubstituted isoxazoles, analogues of natural cytostatic combretastatin A4” (Eur J Med Chem, 2018)
